# Assay results as given in publication PMC10160982 (Proceedings of the National Academy of Sciences of the …, 2023).
# Molecular target: SARS-CoV-2 M^pro (Severe acute respiratory syndrome coronavirus 2, UniProt P0DTD1)
# Test: FRET-based SARS-CoV-2 Mpro inhibition activity assay
# Type: biochemical
# Details: SARS-CoV-2 M^pro inhibition IC50, FRET-based protease assay
compound,measurement,value
COc1cc(O)ccc1/C=C/C(=O)c1ccc(O)cc1 [Echinatin],IC50,22.5 µM
